# Where “and” joins values, the source holds several entries; their conditions need not be identical. Identical values can stand only once. Like-named read-outs stand apart in the source and are kept apart here. Starred links: 1 amine or outer side, 2 acyl side, 3 side chain; linkers in the order of their positions; H or OH if unused. Positions of bridges follow the written chain, without caps; N, C: chain ends. No end group written: not given here. Pyridine(2,6-diCH2) = c1cc(C[*:1])nc(C[*:2])c1; mXylylene = c1cc(C[*:1])cc(C[*:2])c1; oXylylene = c1ccc(C[*:2])c(C[*:1])c1; X1 = O=C(C[*:1])[*:2]
# Columns and labels:
# [1] = target: T1, pepsin (Sus scrofa, UniProt P00791); experiment: Protease degradation analysis with pepsin (RP-HPLC of intact polypeptide); format: in vitro ADME, porcine; settings: for AUC increase / resistance towards degradation by pepsin compared to PEP07830: 0.5 μg ml^−1 pepsin, 0-60 min; for AUC increase / resistance towards degradation by pepsin compared to PEP07830 / Resistance towards degradation by pepsin, screening: 37 °C; for Resistance towards degradation by pepsin, screening: 2 μg ml^−1 pepsin, pH around 2.6, 10 min
# T1 construct: purchased Sigma; host or cells: porcine gastric mucosa
# T1 sequence (P00791 60-385): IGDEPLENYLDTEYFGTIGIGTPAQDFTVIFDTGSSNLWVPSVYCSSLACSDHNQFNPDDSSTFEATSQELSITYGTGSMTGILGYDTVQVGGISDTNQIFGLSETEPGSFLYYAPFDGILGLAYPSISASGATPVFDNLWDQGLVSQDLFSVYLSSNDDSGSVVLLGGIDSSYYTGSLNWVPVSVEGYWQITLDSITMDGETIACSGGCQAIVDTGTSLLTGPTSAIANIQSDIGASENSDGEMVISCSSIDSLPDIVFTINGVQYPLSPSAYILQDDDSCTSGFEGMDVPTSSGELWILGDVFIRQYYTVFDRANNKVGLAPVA
# Procedure: (§1) Proteolytic degradation was studied using pepsin (obtained from porcine gastric mucosa, 3200-4500 U mg^−1, Sigma) and a mixture of trypsin (obtained from bovine pancreas, ≈37 U mg^−1, Sigma) and chymotrypsin (obtained from bovine pancreas, ≥40 U mg^−1, Sigma). In all degradation experiments, 5 μg protein in PBS (pH 7.4) at a concentration of 0.25 mg ml^−1 (50 μM) was used.
# 5 μg of each variant was transferred to a microcentrifuge tube. 32 μl 10 mM HCl with pepsin at a concentration of 3.25 μg ml^−1 or 0.81 μg ml^−1, resulting in a pH around 2.6 and a final pepsin concentration of 2 μg ml^−1 to be used for screening experiment and 0.5 μg ml^−1 for studying the degradation over time. In the screening experiment, the samples were incubated for 10 min at 37° C. before the enzyme was inactivated by addition of 5 μl 0.1 M NaOH, which raised the pH to above 9, and then the sample was put on ice. A reference sample of each protein was inactivated with NaOH before pepsin was added to the tube.
# The degradation over time was monitored for PEP18049_CL, PEP14788_CL_A and the reference polypeptide PEP07830 by incubation for 3, 6, 12, 30 or 60 min at 37° C. before inactivation with NaOH. Reference samples, inactivated with NaOH before the pepsin was added to the tube, were incubated likewise.
# (§2) All samples were analyzed by RP-HPLC using an analytical column (Zorbax 300SB-C18, 4.6×150 mm, 3.5 μm particle size, Agilent Technologies) and a gradient of 15-45% solvent B (solvent A: 0.1% TFA-H2O; solvent B: 0.1% TFA-CH3CN) over 25 min at a flow rate of 1.2 ml min^−1 and LC-ESI-MS on a 6520 Accurate Mass Q-TOF LC/MS.
# (§3) The elution peaks containing the intact polypeptides were integrated and the area under curve was calculated. The degradation experiments over time were performed in triplicates. The integrated area of each sample was normalized to the mean area of the t=0 samples of that variant, the mean and standard error of the mean were calculated for each time point.
# (§4) To quantify the stability improvement of the crosslinked variants, the AUC (area under curve) from the normalized charts was calculated for the three investigated variants. The AUC of the crosslinked variants was then compared to the AUC of the reference polypeptide.
# [2] = system: trypsin and chymotrypsin; experiment: Protease degradation analysis with trypsin and chymotrypsin (RP-HPLC of intact polypeptide); format: in vitro ADME, bovine; settings: for AUC increase / resistance towards degradation by trypsin together with chymotrypsin compared to PEP07830 / Resistance towards degradation by trypsin and chymotrypsin, screening: 2.7 μg ml^−1 trypsin, 1.2 μg ml^−1 chymotrypsin, 37 °C; for AUC increase / resistance towards degradation by trypsin together with chymotrypsin compared to PEP07830: 0-60 min; for Resistance towards degradation by trypsin and chymotrypsin, screening: PBS pH 7.4, 10 min
# Procedure: as §1
# 5 μg of each variant was transferred to a microcentrifuge tube. 32 μl PBS (pH 7.4) with trypsin at a concentration of 4.39 μg ml^−1 and chymotrypsin at a concentration of 1.95 μg ml^−1 was added to yield a final concentration of 2.7 μg ml^−1 of trypsin and 1.2 μg ml^−1 of chymotrypsin. In the screening experiment, the samples were incubated for 10 min at 37° C. before the enzyme was inactivated by addition of 3 μl 10% TFA and then the sample was put on ice. A reference sample of each protein was inactivated with TFA before the trypsin and chymotrypsin were added to the tube.
# The degradation over time was monitored for PEP18049_CL, PEP14788_CL_A and the reference polypeptide PEP07830 by incubation for 3, 6, 12, 30, or 60 min at 37° C. before inactivation with TFA. As above, reference samples, inactivated with TFA before trypsin and chymotrypsin were added to the tube, were incubated likewise.
# as §2, §3, §4
# [3] = target: T2, human serum albumin (HSA) (Homo sapiens, UniProt P02768); experiment: SPR biosensor (ProteOn XPR36) screening of binding to immobilized HSA; settings: 50 nM polypeptide, 2500 RU immobilized HSA, 25 °C
# Procedure: Biosensor binding analyses were performed on a ProteOn XPR36 instrument (Bio-Rad) at 25° C. using PBST (150 mM NaCl, 8 mM Na2HPO4, 2 mM NaH2PO4, 0.005% Tween20, pH 7.4) as running buffer at a flow rate of 50 μl min^−1. An injection of 30 μl of 20 mM HCl at a flow rate of 100 μl min^−1 was used for chip regeneration. In a screening experiment, the binding of all polypeptide variants to human serum albumin (HSA) was investigated. The proteins were diluted to 50 nM in running buffer and injected over a chip surface with 2500 RU of immobilized HSA. The association was studied for 300 s and the dissociation was followed for 7200 s (2 h). For data analysis, all samples were double referenced; the signal from a blank surface was first subtracted from the signal from the respective protein, and secondly the signal from an injection of PBST (running buffer) over the HSA surface was subtracted.
# [4] = Circular dichroism variable temperature measurement (melting temperature); format: physicochemical; settings: CD at 221 nm, 20-90 °C, 50 μM in PBS pH 7.4
# Procedure: Polypeptides were dissolved in PBS (pH 7.4) to a concentration of 50 μM (approximately 0.25 mg ml^−1) and CD spectra and melting curves were collected on a Jasco J-810 spectropolarimeter (Jasco) using a cell with an optical path-length of 1 mm. Variable temperature measurements, VTM, were used to determine Tm. In these measurements, the […] was measured at 221 nm from 20° C. to 90° C., with a temperature slope of 5° C. min^−1. The secondary structure of each variant was analyzed by recording a spectrum ranging from 250 to 195 nm at 20° C., both before and after VTM.
# [5] = target: T2, human serum albumin (HSA); experiment: SPR biosensor (ProteOn XPR36) HSA binding kinetics, 1:1 Langmuir fit; settings: for comparison only; for kon / koff: triplicate, mean (±SD), relative values; for kon: read-out: ka (association rate constant); for koff: read-out: kd (dissociation rate constant)
# Procedure: The HSA binding kinetics of PEP18049_CL and the reference protein PEP07830 were further studied using a sensor chip with HSA immobilized on three different surfaces to between 1100 RU and 1600 RU. The proteins were diluted in running buffer (0.8, 1.6, 3.3, and 6.6 nM for PEP18049_CL and 1.0, 2.0, 4.0 and 8.0 nM for PEP07830) and injected over the three HSA surfaces and thus giving binding curves in triplicate. The association time was 300 s and the dissociation was followed for 36 000 s (10 h).
# The kinetic parameters of the binding of PEP18049_CL and the reference protein PEP07830 to HSA were obtained from fitting the obtained sensorgrams to a 1:1 Langmuir binding model using the ProteOn Manager software version 3.1.0.6 (Bio-Rad). The average association rate constant (ka (M^−1 s^−1) and dissociation rate constant (kd (s^−1)) with standard deviation were calculated. From the average ka and the kd the dissociation equilibrium constant (KD (M)) was calculated (KD=kd/ka).
# [6] = human, HSA immobilized on SPR sensor chip (ProteOn XPR36)
# [7] = LC-ESI-MS of degradation products
substance,measurement,setting,value
LAEAKEAANAELDSYGCSDFYKRLIDKAKTVEGVEALKDAILAACP-NH2 (linker 17-45 via oXylylene) [PEP14788_CL_A],AUC increase / resistance towards degradation by pepsin compared to PEP07830,[1],2.4 fold
same,"Resistance towards degradation by pepsin, screening",[1],no significant difference between these variants
same,AUC increase / resistance towards degradation by trypsin together with chymotrypsin compared to PEP07830,[2],1.4 fold
same,"Resistance towards degradation by trypsin and chymotrypsin, screening",[2],no significant difference between these variants
"PEP18050_CL: SEQ ID NO:1769 (PEP18050), control polypeptide, crosslinked Lys5-Cys28 (LAEAKEAANAELDSYGVSDFYKRLIDKCKTVEGVEALKDAILAALP; Lys5-Cys28 crosslink; Engineered albumin binding polypeptide)",HSA binding in screening experiment,[3],completely lost their affinity for HSA
Ac-LAEAKEAANAELDSYGCSDFYKRLIDKAKTVEGVEALKDAILAAKP-NH2 (linker 17-45 via X1) [PEP18049_CL],Tm (melting temperature),[4],63 °C
same,HSA binding in screening experiment,[3],fast on-rate and a two phase-like dissociation
same,kon,[5]; [6],620000 M⁻¹ s⁻¹
same,koff,[5]; [6],1.5e-05 s⁻¹
same,Kd,[5]; triplicates,~0.024 nM and 0.024 nM
same,AUC increase / resistance towards degradation by pepsin compared to PEP07830,[1],17 fold
same,"Resistance towards degradation by pepsin, screening",[1],increased resistance towards degradation
same,AUC increase / resistance towards degradation by trypsin together with chymotrypsin compared to PEP07830,[2],5 fold
same,"Resistance towards degradation by trypsin and chymotrypsin, screening",[2],increased resistance towards degradation
LAEAKEAANAELDSYGCSDFYKRLIDKAKTVEGVEALKDAILAACP-NH2 (linker 17-45 via mXylylene) [PEP14788_CL_B],"Resistance towards degradation by pepsin, screening",[1],no significant difference between these variants
same,"Resistance towards degradation by trypsin and chymotrypsin, screening",[2],no significant difference between these variants
"PEP18052_CL: SEQ ID NO:1771 (PEP18052), control polypeptide, double crosslinked (LAEAKEAANAELDSYGCSDFYKRLIDKCKTVEGVEALKDAILAAKP; double crosslinked; Engineered albumin binding polypeptide)",HSA binding in screening experiment,[3],completely lost their affinity for HSA
"PEP18053_CL: SEQ ID NO:1772 (PEP18053), control polypeptide, double crosslinked (CAEAKEAANAELDSYGCSDFYKRLIDKAKTVEGVEALKDAILAAKP; double crosslinked; Engineered albumin binding polypeptide)",HSA binding in screening experiment,[3],weak binding
"LAEAKEAANAELDSYGCSDFYKRLIDKAKTVEGVEALKDAILAACP-NH2 (linker 17-45 via Pyridine(2,6-diCH2)) [PEP14788_CL_E]","Resistance towards degradation by pepsin, screening",[1],no significant difference between these variants
same,"Resistance towards degradation by trypsin and chymotrypsin, screening",[2],no significant difference between these variants
"PEP18051_CL: SEQ ID NO:1770 (PEP18051), control polypeptide, crosslinked Cys1-Lys29 (CAEAKEAANAELDSYGVSDFYKRLIDKAKTVEGVEALKDAILAALP; Cys1-Lys29 crosslink; Engineered albumin binding polypeptide)",HSA binding in screening experiment,[3],"slower on-rate, but also seemed to have a very slow off-rate indicating a high affinity for HSA"
"LAEAKEAANAELDSYGVSDFYKRLIDKAKTVEGVEALKDAILAALP-NH2 (C-terminus assumed) [PEP07830, reference compound]",Kd,"[5]; human, KD=kd/ka from average ka and kd",0.021 nM
same,kon,[5]; human,190000 M⁻¹ s⁻¹
same,koff,[5]; human,4.1e-06 s⁻¹
same,Kd,"[5]; human, triplicates",~0.021 nM
same,Peptide bond rapidly cleaved by pepsin (major degradation products),[1]; [7],between Leu42 and Ala43
same,Peptide bond most susceptible for cleavage by trypsin and chymotrypsin,[2]; [7],between Tyr21 and Lys22
